Measured values reported in PubChem BioAssay (NCI).
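The concentration for 50% growth inhibition is given as GI50. The concentration for full growth arrest is given as TGI.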

Assays:
Experiment in all cases: NCI-60 cell line screen, 384-well format
A498 renal = system: A498 renal
A549 NSCLC = system: A549 NSCLC
ACHN renal = system: ACHN renal
BT-549 breast = system: BT-549 breast
CAKI-1 renal = system: CAKI-1 renal
COLO 205 colon = system: COLO 205 colon
DU-145 prostate = system: DU-145 prostate
EKVX NSCLC = system: EKVX NSCLC
HCC-2998 colon = system: HCC-2998 colon
HCT-116 colon = system: HCT-116 colon
HCT-15 colon = system: HCT-15 colon
HL-60(TB) leukemia = system: HL-60(TB) leukemia
HOP-92 NSCLC = system: HOP-92 NSCLC
HS 578T breast = system: HS 578T breast
HT29 colon = system: HT29 colon
KM12 colon = system: KM12 colon
LOX IMVI melanoma = system: LOX IMVI melanoma
M14 melanoma = system: M14 melanoma
MALME-3M melanoma = system: MALME-3M melanoma
MCF7 breast = system: MCF7 breast
MDA-MB-231 breast = system: MDA-MB-231 breast
MDA-MB-468 breast = system: MDA-MB-468 breast
MOLT-4 leukemia = system: MOLT-4 leukemia
NCI-H226 lung = system: NCI-H226 lung
NCI-H23 lung = system: NCI-H23 lung
NCI-H322M lung = system: NCI-H322M lung
NCI-H460 NSCLC = system: NCI-H460 NSCLC
NCI-H522 lung = system: NCI-H522 lung
OVCAR-3 ovarian = system: OVCAR-3 ovarian
OVCAR-8 ovarian = system: OVCAR-8 ovarian
PC-3 prostate = system: PC-3 prostate
RPMI-8226 leukemia = system: RPMI-8226 leukemia
RXF 393 renal = system: RXF 393 renal
SF-268 CNS = system: SF-268 CNS
SK-MEL-28 melanoma = system: SK-MEL-28 melanoma
SK-MEL-5 melanoma = system: SK-MEL-5 melanoma
SK-OV-3 ovarian = system: SK-OV-3 ovarian
SN12C renal = system: SN12C renal
SNB-19 CNS = system: SNB-19 CNS
SNB-75 CNS = system: SNB-75 CNS
SR leukemia = system: SR leukemia
U251 glioblastoma = system: U251 glioblastoma
UACC-257 melanoma = system: UACC-257 melanoma
UACC-62 melanoma = system: UACC-62 melanoma

CCn1c(-c2nonc2N)nc2c(C#CC(C)(C)O)ncc(OC[C@H]3CCCNC3)c21
GI50 (A498 renal): < 0.01 µM
TGI (A498 renal): < 0.01 µM
GI50 (A549 NSCLC): 4.15 µM
TGI (A549 NSCLC): 22.7 µM
GI50 (ACHN renal): < 0.01 µM
TGI (ACHN renal): 0.129 µM
GI50 (BT-549 breast): < 0.01 µM
TGI (BT-549 breast): 2.13 µM
GI50 (CAKI-1 renal): 0.411 µM
TGI (CAKI-1 renal): 16.7 µM
GI50 (COLO 205 colon): 0.116 µM
TGI (COLO 205 colon): 12.1 µM
GI50 (DU-145 prostate): 0.0938 µM
TGI (DU-145 prostate): 13.8 µM
GI50 (EKVX NSCLC): 4.79 µM
TGI (EKVX NSCLC): 26.5 µM
GI50 (HCC-2998 colon): < 0.01 µM
TGI (HCC-2998 colon): 0.0209 µM
GI50 (HCT-116 colon): 1.47 µM
TGI (HCT-116 colon): 17.7 µM
GI50 (HCT-15 colon): 0.984 µM
TGI (HCT-15 colon): 64.2 µM
GI50 (HL-60(TB) leukemia): < 0.01 µM
TGI (HL-60(TB) leukemia): 0.101 µM
GI50 (HOP-92 NSCLC): < 0.01 µM
TGI (HOP-92 NSCLC): 21.7 µM
GI50 (HS 578T breast): < 0.01 µM
TGI (HS 578T breast): 14.2 µM
GI50 (HT29 colon): 0.199 µM
TGI (HT29 colon): 16.5 µM
GI50 (KM12 colon): 0.018 µM
TGI (KM12 colon): 14.4 µM
GI50 (LOX IMVI melanoma): 1.05 µM
TGI (LOX IMVI melanoma): 8.42 µM
GI50 (M14 melanoma): < 0.01 µM
TGI (M14 melanoma): < 0.01 µM
GI50 (MALME-3M melanoma): 0.183 µM
TGI (MALME-3M melanoma): 17.6 µM
GI50 (MCF7 breast): 0.0267 µM
TGI (MCF7 breast): 16.6 µM
GI50 (MDA-MB-231 breast): 2.62 µM
TGI (MDA-MB-231 breast): 16.7 µM
GI50 (MDA-MB-468 breast): 0.099 µM
TGI (MDA-MB-468 breast): 19.6 µM
GI50 (MOLT-4 leukemia): < 0.01 µM
TGI (MOLT-4 leukemia): < 0.01 µM
GI50 (NCI-H226 lung): 4.62 µM
TGI (NCI-H226 lung): 18.5 µM
GI50 (NCI-H23 lung): < 0.01 µM
TGI (NCI-H23 lung): 13.6 µM
GI50 (NCI-H322M lung): 0.0268 µM
TGI (NCI-H322M lung): 18.4 µM
GI50 (NCI-H460 NSCLC): 0.195 µM
TGI (NCI-H460 NSCLC): 11 µM
GI50 (NCI-H522 lung): 1.25 µM
TGI (NCI-H522 lung): 4.73 µM
GI50 (OVCAR-3 ovarian): 0.198 µM
TGI (OVCAR-3 ovarian): 15.2 µM
GI50 (OVCAR-8 ovarian): < 0.01 µM
TGI (OVCAR-8 ovarian): 17.6 µM
GI50 (PC-3 prostate): 0.0846 µM
TGI (PC-3 prostate): 14.2 µM
GI50 (RPMI-8226 leukemia): < 0.01 µM
TGI (RPMI-8226 leukemia): 0.283 µM
GI50 (RXF 393 renal): < 0.01 µM
TGI (RXF 393 renal): 19.2 µM
GI50 (SF-268 CNS): 6.19 µM
TGI (SF-268 CNS): 20.2 µM
GI50 (SK-MEL-28 melanoma): 4.69 µM
TGI (SK-MEL-28 melanoma): 20.4 µM
GI50 (SK-MEL-5 melanoma): < 0.01 µM
TGI (SK-MEL-5 melanoma): 0.19 µM
GI50 (SK-OV-3 ovarian): 0.0422 µM
TGI (SK-OV-3 ovarian): 12.7 µM
GI50 (SN12C renal): 0.0908 µM
TGI (SN12C renal): 12.4 µM
GI50 (SNB-19 CNS): 0.495 µM
TGI (SNB-19 CNS): 15.2 µM
GI50 (SNB-75 CNS): 0.216 µM
TGI (SNB-75 CNS): 17.1 µM
GI50 (SR leukemia): < 0.01 µM
TGI (SR leukemia): < 0.01 µM
GI50 (U251 glioblastoma): 1.08 µM
TGI (U251 glioblastoma): 14.4 µM
GI50 (UACC-257 melanoma): 2 µM
TGI (UACC-257 melanoma): 16.7 µM
GI50 (UACC-62 melanoma): 0.22 µM
TGI (UACC-62 melanoma): 16.8 µM
